# Assay results reported in ChEMBL document CHEMBL1201862, “PubChem BioAssay data set” (2004).
#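 These data come from cells grown in 96-well plates and exposed to compound for 48 hours at five concentrations. Abbreviation: GI50, concentration required for 50% inhibition of growth.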 Calls of active or inactive are those of the source. Cut-off read from the data, not from the text of the source: active = GI50 up to about 1.1 µM and inactive = higher.
# Columns and labels:
# Assay in all cases: inhibition of tumour cell growth, NCI panel, 48 h
# KM12 = test system: KM12
# MDA-MB-231 = test system: MDA-MB-231
# SK-OV-3 = test system: SK-OV-3
# UO-31 = test system: UO-31
# UACC-62 = test system: UACC-62
# Malme-3M = test system: Malme-3M
# RPMI-8226 = test system: RPMI-8226
# HT-29 = test system: HT-29
# DU-145 = test system: DU-145
# SF-295 = test system: SF-295
# K562 = test system: K562
# NCI-H460 = test system: NCI-H460
# RXF 393 = test system: RXF 393
# NCI-H23 = test system: NCI-H23
# HCT-15 = test system: HCT-15
# OVCAR-8 = test system: OVCAR-8
# BT-549 = test system: BT-549
# MOLT-4 = test system: MOLT-4
# HCT-116 = test system: HCT-116
# HL-60 = test system: HL-60
Structure (SMILES),GI50 (KM12),GI50 (MDA-MB-231),GI50 (SK-OV-3),GI50 (UO-31),GI50 (UACC-62),GI50 (Malme-3M),GI50 (RPMI-8226),GI50 (HT-29),GI50 (DU-145),GI50 (SF-295),GI50 (K562),GI50 (NCI-H460),GI50 (RXF 393),GI50 (NCI-H23),GI50 (HCT-15),GI50 (OVCAR-8),GI50 (BT-549),GI50 (MOLT-4),GI50 (HCT-116),GI50 (HL-60)
Nc1n[nH]c2nc3ccc(C(F)(F)F)cc3nc12,57.1 µM (inactive),43.6 µM (inactive),20.5 µM (inactive),17.6 µM (inactive),21 µM (inactive),71.6 µM (inactive),62.2 µM (inactive),29.8 µM (inactive),16.7 µM (inactive),24.5 µM (inactive),42.7 µM (inactive),20.5 µM (inactive),16.4 µM (inactive),22.2 µM (inactive),23.1 µM,19.8 µM (inactive),23.1 µM (inactive),43.5 µM (inactive),24.7 µM (inactive),
C#C/C=C/CC1OC(C(Br)CC)CC(Br)C2CC1O2 (stereo not drawn),60.5 µM (inactive),> 100 µM (inactive),40.9 µM (inactive),,56.2 µM (inactive),11.3 µM (inactive),27.1 µM (inactive),42.6 µM (inactive),> 100 µM (inactive),> 100 µM (inactive),29 µM (inactive),> 100 µM (inactive),48.6 µM (inactive),> 100 µM (inactive),40.7 µM,61.1 µM (inactive),38.9 µM (inactive),29.4 µM (inactive),30.6 µM (inactive),34.1 µM (inactive)
Cc1cc(C)c2c(n1)S(=O)(=O)N(CCCN1CCN(c3cccc(C(F)(F)F)c3)CC1)c1c-2nn(C)c1C,52.8 µM (inactive),> 100 µM (inactive),> 100 µM (inactive),44.4 µM (inactive),58.7 µM (inactive),> 100 µM (inactive),,16.6 µM (inactive),> 100 µM (inactive),52.7 µM (inactive),30.3 µM (inactive),89.3 µM (inactive),> 100 µM (inactive),61.2 µM (inactive),44.5 µM,> 100 µM (inactive),> 100 µM (inactive),10.8 µM (inactive),61.8 µM (inactive),24 µM (inactive)
COc1c2c(cc3c1OCO3)[C@]13C=C[C@H](OC)C[C@H]1N(C2)CC3O (stereo partly drawn),> 100 µM (inactive),> 100 µM (inactive),> 100 µM (inactive),> 100 µM (inactive),> 100 µM (inactive),> 100 µM (inactive),> 100 µM (inactive),> 100 µM (inactive),> 100 µM (inactive),> 100 µM (inactive),,> 100 µM (inactive),> 100 µM (inactive),> 100 µM (inactive),> 100 µM,> 100 µM (inactive),> 100 µM (inactive),99.1 µM (inactive),> 100 µM (inactive),> 100 µM (inactive)
O=[N+]([O-])c1cccc(Cl)c1Oc1ccc(S(=O)(=O)N/C(=N\O)Nc2ccc(Cl)cc2)cc1,15.9 µM (inactive),17.7 µM (inactive),17.1 µM (inactive),9.1 µM (inactive),12.7 µM (inactive),13.1 µM (inactive),6.01 µM (inactive),17.1 µM (inactive),15.5 µM (inactive),16.1 µM (inactive),14.3 µM (inactive),12.8 µM (inactive),13.8 µM (inactive),15.5 µM (inactive),15 µM,16.3 µM (inactive),14.5 µM (inactive),3.11 µM (inactive),12.5 µM (inactive),
COc1ccc(N2C=Nn3c(nc4sc5c(c4c3=O)CCCC5)C2)cc1,> 100 µM (inactive),6.37 µM (inactive),> 100 µM (inactive),> 100 µM (inactive),12.2 µM (inactive),18.1 µM (inactive),> 100 µM (inactive),> 100 µM (inactive),> 100 µM (inactive),18.3 µM (inactive),> 100 µM (inactive),86.9 µM (inactive),15.4 µM (inactive),26.1 µM (inactive),> 100 µM,51.4 µM (inactive),20.7 µM (inactive),> 100 µM (inactive),19.4 µM (inactive),
OCC1OC(NC(=S)NCSCCC(F)(F)C(F)(F)C(F)(F)C(F)(F)C(F)(F)C(F)(F)F)C(O)C(O)C1O (stereo not drawn),38.7 µM (inactive),> 100 µM (inactive),82 µM (inactive),> 100 µM (inactive),32.7 µM (inactive),73.8 µM (inactive),63.8 µM (inactive),34.2 µM (inactive),81.8 µM (inactive),23.1 µM (inactive),19.9 µM (inactive),34 µM (inactive),35.2 µM (inactive),39.5 µM (inactive),72.6 µM,,> 100 µM (inactive),21.5 µM (inactive),34.4 µM (inactive),49.4 µM (inactive)
